Experimental data from patent US5843941A, “Ras farnesyl transferase inhibitors” (Genentech, Inc., priority 1994, dated 1998).
Where two headings read alike, the source gives them in different places.

Experiments:
[1] = test system: farnesylated proteins F1, F2 and F3 in Met18b-2 cells; experiment: Inhibition of intracellular farnesylation in intact Met18b-2 cells, Triton-soluble proteins F1, F2, F3; type: cell-based, Chinese hamster; details: for EC90: Cricetulus griseus, read-out: EC 90% "B isomer"
Excerpt: To study farnesylation in intact cells we used Met18b-2 cells, a line of Chinese hamster ovary (CHO) cells that takes up [3H]mevalonate efficiently (see Faust, J., and Krieger, M. J. Biol. Chem. 262, 1966 (1987)) owing to the production of a mevalonate transport protein (see Kim, C. M., Goldstein, J. L., Brown, M. S. J. Biol. Chem. 267, 23113 (1992)). The [3H]mevalonate is converted by the cells into [3H]farnesyl pyrophosphate and [3H]geranylgeranyl pyrophosphate, which are then attached to proteins (Kim, C. M., Goldstein, J. L., Brown, M. S. J. Biol. Chem. 267, 23113 (1992)). In the assay, stock cultures of Met18b-2 cells were seeded at a density of 3-105 cells per 60 mm dish in 3 ml of medium A (Dulbecco's modified Eagle medium/Ham's F12 medium (1:1, v/v) containing 100 U/ml penicillin and 100 μg/ml streptomycin) supplemented with 5% (v/v) fetal calf serum (FCS). On day 3, each monolayer was refed with 1 ml medium A supplemented with 1% FCS (dialyzed against 0.15 M NaCl). At this point the cells were treated with 100 μM compactin (see Brown, M. S., Faust, J. R., Goldstein, J. L., Kaneko, I., and Endo, A. J. Biol. Chem. 253, 1121 (1978)) which blocks the synthesis of unlabeled mevalonate within the cells. Each compound was dissolved at 25 mM in DMSO/10 mM DTT immediately before use and 10 μl of this solution added directly. After 2 hr incubation at 37° C., each monolayer received 100 μCi [3H]mevalonate (60 Ci/mmol, American Radiolabeled Chemicals, Inc.) added in 100 μl of the medium A, and the incubation continued for 4 hr. The cells were harvested by rinsing three times with 3 ml of 50 mM Tris-HCl/0.15 M NaCl (pH 7.5). 300 μl of lysis buffer (0.5X Dulbecco's phosphate-buffered saline containing 1% Triton X-100, 5 μg/ml leupeptin, 5 μg/ml pepstatin, 0.5 mM phenylmethylsulfonyl fluoride, and 0.05 U/ml aprotinin) was added to each monolayer. After incubation on ice for 5 mon, the lysates were centrifuged 30 sec in a microfuge at 12,000 g. The resulting supernatant was tranferred to a new tube, and each pellet was resuspended in 60 μl of lysis buffer. Protein concentrations were determined using the BCA protein assay reagent (Pierce) according to the manufacturer's instructions. Detergent-soluble (supernatant) and -insoluble (pellet) samples were mixed with 2X SDS sample buffer (see Laemmli, U. K. Nature 227, 680 (1970)) and heated at 95° C. for 5 min before electrophoresis. Each lane contained 90 μg protein, and was run on a 12.5% SDS-polyacrylamide gel. The gel was dried, treated with ENTENSIFY (NEN-DuPont), and exposed to Kodak XOMAT-AR film for 9 h at -80° C. to allow visualization of all prenylated proteins. Migration of [14C]methylated molecular weight standards (Amersham) were used as markers.
The results of this assay are shown in FIG. 3, using a final concentration of 250 μM for each inhibitor. […] As shown in the figure, none of the control peptides or control benzodiazepine-peptideomimetics altered the prenylation of proteins in intact cells.
Using the same cells and procedures followed above for Example 125, we measured the dose dependence upon the inhibition of farnesylation in intact cells. […] Compound 37B inhibited the famesylation of F1-3 detectably at 10 μM, and almost completely at 25 μM.
In this manner, it is possible to obtain data regarding the comparative potency of these inhibitors upon the level of intracellular farnesylation. We have chosen to report the EC90% values for these inhibitors as the concentration required for a reduction in the Triton- soluble labelling (denoted F-1, F-2, and F-3) to 90% of control cells (untreated).

CAAX farnesyltransferase [2] = molecular target: T1, CAAX farnesyltransferase (Rattus norvegicus, UniProt Q02293+Q04631); experiment: In vitro farnesylation of the compound by CAAX farnesyltransferase (substrate test, thin layer chromatography); type: biochemical; details: relative to tetrapeptide CVIM, 3.6 μM, 37° C., 30 min; for % farnesylation "A": diastereomer A; for % farnesylation "B": diastereomer B
Description: After incubation at 37° C. for 30 min, the reaction was stopped by addition of 2 μl of 250 mM EDTA, and the entire reaction mixture was spotted onto a plastic-backed Silica Gel G thin layer sheet (20×20 cm, Brinkmann Inst.) and placed in a tank containing n-propyl alcohol/ammonium hydroxide/water (6:3:1 v/v/v).

CAAX farnesyltransferase [3] = molecular target: T1, CAAX farnesyltransferase; experiment: In vitro inhibition of CAAX farnesyltransferase; type: biochemical; set-up: purified to homogeneity from rat brain homogenates; from tissue; host or cells: rat brain; alternatively recombinant enzyme from a baculovirus expression system; details: Table D
Outline: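 Native or recombinant (baculovirus-infected cells, Q-Sepharose purified) farnesyltransferase incubated 30 min at 37 °C. [3H]farnesyl transfer to p21H-ras measured by SDS/trichloroacetic acid precipitation, nitrocellulose filtration and scintillation counting.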

[4] = diastereomer A, read-out: EC50 (μM) "A"
[5] = diastereomer B, read-out: EC50 (μM) "B"

T1 sequence (Q02293 whole entry, one chain of several): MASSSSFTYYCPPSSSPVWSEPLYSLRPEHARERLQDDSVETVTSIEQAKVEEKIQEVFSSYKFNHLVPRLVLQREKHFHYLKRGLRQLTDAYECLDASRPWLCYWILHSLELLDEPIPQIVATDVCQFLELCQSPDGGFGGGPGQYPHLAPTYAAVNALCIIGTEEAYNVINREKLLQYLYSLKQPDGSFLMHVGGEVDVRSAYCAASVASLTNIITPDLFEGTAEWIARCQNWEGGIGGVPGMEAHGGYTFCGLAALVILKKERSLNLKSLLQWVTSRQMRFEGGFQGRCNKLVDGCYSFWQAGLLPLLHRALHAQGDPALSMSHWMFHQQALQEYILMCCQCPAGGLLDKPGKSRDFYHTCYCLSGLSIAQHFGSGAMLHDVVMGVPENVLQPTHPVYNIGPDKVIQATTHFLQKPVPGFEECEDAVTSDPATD

Row | SMILES | relative potency in intact cells ([1]; dose dependence, FIG. 4, compared with 27B and 37B) | % farnesylation "A" (CAAX farnesyltransferase [2]) [%] | % farnesylation "B" (CAAX farnesyltransferase [2]) [%] | EC50 (CAAX farnesyltransferase [3]; [4]) [µM] | EC50 (CAAX farnesyltransferase [3]; [5]) [µM] | EC90 [1] [µM]
1 | CSCC[C@H](NC(=O)CN1C(=O)C(N(C)C(=O)[C@@H](N)CS)N=C(c2ccccc2)c2ccccc21)C(N)=O (single isomer, unassigned) [33B, N-[[3-[(2-amino-3-mercapto-1-oxopropyl)methylamino]-2,3-dihydro-2-oxo-5phenyl-1H-1,4-benzodiazepin-1-yl]acetyl]-L-methionine amide] | of intermediate potency |  |  |  |  | 
2 | CSCC[C@H](NC(=O)CN1C(=O)C(N(C)C(=O)[C@@H](N)CS)CCc2ccccc21)C(=O)O (some centres unmarked) [compound 9] |  | < 1 | < 1 | 1.2 | 0.024 | 
3 | CSCC[C@H](NC(=O)CN1C(=O)C(NC(=O)[C@@H](N)CS)CCc2ccccc21)C(=O)O (some centres unmarked) [compound 10] |  | 20 | < 1 | 1.6 | 1.4 | 
4 | CSCC[C@H](NC(=O)CN1C(=O)C(N(C)C(=O)[C@@H](N)CS)N=C(c2ccccc2)c2ccccc21)C(=O)O (stereo partly drawn) [compound 27, N-[[3-[(2-amino-3-mercapto-1-oxopropyl)methylamnino]-2,3-dihydro-2-oxo-5-phenyl-1H -1,4-benzodiazepin-1-yl]acetyl]-L-methionine] |  | 5 | < 1 | 0.8 | 0.0003 | 
5 | CSCC[C@H](NC(=O)CN1C(=O)C(NC(=O)[C@@H](N)CS)N=C(c2ccccc2)c2ccccc21)C(=O)O (stereo partly drawn) [compound 28, N-[[3-[(2-amino-3-mercapto-1-oxopropyl)amino]-2,3-dihydro-2-oxo-5phenyl-1H-1,4-benzodiazepin-1-yl]acetyl]-L-methionine] |  | 9 | < 1 | 0.38 | 0.431 | 
6 | CSCC[C@H](NC(=O)CN1C(=O)C(N(C)C(=O)CCS)N=C(c2ccccc2)c2ccccc21)C(=O)O (some centres unmarked) [compound 29] |  | < 1 | < 1 | 1.8 | 1.8 | 
7 | CN(C(=O)[C@@H](N)CS)C1N=C(c2ccccc2)c2ccccc2N(CC(=O)N[C@@H](CO)C(=O)O)C1=O (some centres unmarked) [compound 30] |  | < 1 | < 1 | 10 | 0.0084 | 
8 | CC(C)C[C@H](NC(=O)CN1C(=O)C(N(C)C(=O)[C@@H](N)CS)N=C(c2ccccc2)c2ccccc21)C(=O)O (stereo partly drawn) [compound 31, N-[[3-[(2-amino-3-mercapto-1-oxopropyl)methylamino]-2,3-dihydro-2-oxo-5-phenyl-1H -1,4-benzodiazepin-1-yl]acetyl]-L-leucine] |  | < 1 | < 1 | 0.084 | 0.0021 | 
9 | CSCC[C@H](NC(=O)CN1C(=O)C(N(C)C(=O)[C@H](CS)NC(C)=O)N=C(c2ccccc2)c2ccccc21)C(=O)O (stereo partly drawn) [compound 32, N-[[3-[(2-acetylamino-3-mercapto-1-oxopropyl)methylamino]-2,3-dihydro-2-oxo-5-phenyl-1H-1,4-benzodiazepin-1-yl]acetyl]-L-methionine] |  | 110 | < 1 | 1.2 | 8 | 
10 | CN(C(=O)[C@@H](N)CS)C1N=C(c2ccccc2)c2ccccc2N(CC(=O)N[C@@H](Cc2ccccc2)C(=O)O)C1=O (stereo partly drawn) [compound 34, N-[[3-[(2-amino-3-mercapto-1-oxopropyl)methylamino]-2,3-dihydro-2-oxo-5-phenyl-1H-1,4-benzodiazepin-1-yl]acetyl]-L-phenylalanine] |  |  | < 1 | 0.54 | 0.0005 | 
11 | COC(=O)[C@H](CCSC)NC(=O)CN1C(=O)C(N(C)C(=O)[C@@H](N)CS)N=C(c2ccccc2)c2ccccc21 (some centres unmarked) [compound 37] |  | < 1 | 2 | 0.19 | 0.05 | 
12 | CSCC[C@H](NC(=O)CN1C(=O)C(N(C)C(=O)C2CSC(C)N2)N=C(c2ccccc2)c2ccccc21)C(=O)O (stereo partly drawn) [compound 43, N-[[3-[(2-methylthiazolidine-4-carboxyl)methylamino] -2,3-dihydro-2-oxo-5-phenyl-1H-1,4-benzodiazepin-1-yl]acetyl]-L-methionine] |  | < 1 | < 1 | 0.32 | 0.006 | 
13 | CC(C)C[C@H](NC(=O)CN1C(=O)C(N(C)C(=O)[C@@H](N)CS)N=C(c2ccccc2)c2ccccc21)c1nnn[nH]1 (stereo partly drawn) [compound 46, N-[[3-[(2-amino-3-mercapto-1-oxopropyl)methylamino]-2,3-dihydro-2-oxo-5-phenyl-1H-1,4-benzodiazepin-1-yl]acetyl]-L-leucine tetrazole] |  |  | < 1 | 0.26 | 0.0016 | 
14 | COC(=O)c1cccc(CN2C(=O)C(N(C)C(=O)[C@@H](N)CSSC(C)(C)C)N=C(c3ccccc3)c3cc(Cl)ccc32)c1 (some centres unmarked) [compound 99, N-[[3-[(2-amino-3-tert-butylthiomercapto-1-oxopropyl)methylamino]-2,3-dihydro-2-oxo-5-phenyl-7-chloro-1H-1,4-benzodiazepin-1-yl]methyl]-3-carboxymethylbenzene] |  |  |  |  | 0.38 | 30
15 | COC(=O)c1cccc(CN2C(=O)C(N(C)C(=O)[C@@H]3CSC(C)N3)N=C(c3ccccc3)c3cc(Cl)ccc32)c1 (some centres unmarked) [compound 100, N-[[3-[(2-methylthiazolidine-4-carboxyl)methylamino]-2,3-dihydro-2-oxo-5-phenyl-7-chloro-1H-1,4-benzodiazepin-1-yl]methyl]-3-carboxymethylbenzene] |  |  |  | 0.52 | 0.034 | 30
16 | CN(C(=O)[C@@H](N)CS)C1N=C(c2ccccc2)c2cc(Cl)ccc2N(Cc2ccc(C#N)cc2)C1=O (some centres unmarked) [compound 101, N-[[3-[(2-amino-3-mercapto-1-oxopropyl)methylamino]-2,3-dihydro-2-oxo-5-phenyl-7-chloro-1H-1,4-benzodiazepin-1-yl]methyl]4-benzonitrile] |  |  |  | 3 | 0.0009 | 20
17 | CSCC[C@H](NC(=O)CN1C(=O)C(N(C)C(=O)[C@@H](N)CSSC(C)(C)C)N=C(c2ccccc2)c2ccccc21)C(=O)OC(C)(C)C (stereo partly drawn) [compound 118, N-[[3-[(2-amino-3-tert-butylthiomercapto-1-oxopropyl)methylamino]-2,3-dihydro-2-oxo-5-phenyl-1H-1,4-benzodiazepin-1-yl]acetyl]-L-methionine tert-butyl ester] |  |  |  |  | 0.9 | 
